This passage reports IC50 and inhibition results from patent US7196110B2, “N-substituted tricyclic 3-aminopyrazoles as inhibitors for the treatment of cell proliferative disorders” (Janssen Phamaceutica N.V., priority 2002, dated 2007).

Several values for one entry are separate records, joined by “and”; a condition that tells them apart may be missing. Equal values may be shown once.

Test [1] concerns the target c-Abl kinase (Abelson murine leukemia virus, UniProt P00521). The test can be described thus: Inhibition of c-Abl kinase activity (cell-free, Abl peptide substrate, 33P Flashplate). It counts as biochemical. Conditions: IC50 for the c-Abl kinase activity. On the procedure: The inhibitory activity of compounds within the scope of the invention on c-Abl kinase activity was tested according to the following procedure.
• 1. 10× Kinase Buffer [500 mM Tris-HCl pH=8, 100 mM MgCl2, 1 mM Na3VO4] • 2. 10 mM DTT [final concentration 1 mM] • 3. 10 mM ATP [final concentration 5 μM] (Gibco, Cat No:18330-019, Carlsbad, Calif.) • 4. ^33P-γ-ATP [NEG-602H; 2000–3000 Ci/mmol], 2 μCuries per well at 10 μCi/μl (0.2 μl/well) • 5. Abl enzyme (New England Biolabs, Cat No. P6050L, Beverly, Mass.) at 100 Units/μl use 10 Units/well (0.1 μl/well) • 6. Enzyme Dilution Buffer [50 mM Tris-HCl pH=8.0, 0.1% BSA] • 7. Wash/Stop Buffer [PBS+100 mM EDTA] • 8. NEN Streptavidin Flashplates (New England Nuclear, Cat No. SMP-103, Boston, Mass.). • 9. Abl Peptide Substrate (Biotin-[…]-amide) at 1 mM in 50 mM Tris-HCL pH=8.0. (Use at 1.0 μM). Procedure
Reagents were first mixed according to the following regimen:
The above reaction mixture was dispensed into each well of a Flashplate at 70 μl/well. To test the effect of a compound on Abl kinase activity, the test compound either in a fixed concentration or in serially diluted concentrations in 100% DMSO was added to appropriate wells at 1 μl/well.
Enzyme Abl was diluted in enzyme dilution buffer as following:
The kinase reaction was started by adding 30 μl of diluted Abl enzyme solution to each well on the Flashplate containing hot ATP (2 μCi/well) and Abl peptide substrate (at 1 μM final conc.), except wells of column 12 rows E and F, which were used to calculate the plate background. The Flashplate was swirled to mix and was incubated at 30° C. for 60 minutes. Then, the reaction mixture was discarded and the Flashplate was washed 3 times each with 200 μL Wash/Stop Buffer. Subsequently, each well on the Flashplate was filled with 200 μl of Wash/Stop buffer. The amount of ^33P retained in each well was measured using a Packard TopCount after the plate was sealed with a transparent plate sealer.
In order to test the potency of inhibition of present compounds, an IC50 for an individual compound was measured using the above procedure. As used herein, the IC50 for c-Abl kinase activity refers to the concentration of an inhibitor at which the activity of c-Abl kinase is reduced by one-half as compared with reactions containing no inhibitor.

Test [2] addresses T1, PDGF-receptor beta enzyme comprising the tyrosine kinase domain (Homo sapiens, UniProt P09619).
T1 construct: from amino acid 545 to 1106 of GenBank Access NO: AAA36427
In words: Inhibition of PDGF-receptor kinase activity (cell-free, PLC1 peptide, 33P Flashplate). The test is classed as biochemical. The settings on record: PDGF-R kinase activity; for inhibition at 10 µM: compound at 10 uM, read-out: Percent Inhibition @ 10 uM; for IC50: read-out: IC50. In a few lines:
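Recombinant kinase domain (aa 545–1106) phosphorylated a biotinylated PLC1 peptide with 5 μM ATP plus 33P-γ-ATP, in Tris pH 8, MgCl2, Na3VO4 and 1 mM DTT, for 60 min at 30 °C. Retained 33P was counted after washing. IC50 is the concentration halving activity versus no-inhibitor reactions.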

T1 sequence (P09619 545-1106): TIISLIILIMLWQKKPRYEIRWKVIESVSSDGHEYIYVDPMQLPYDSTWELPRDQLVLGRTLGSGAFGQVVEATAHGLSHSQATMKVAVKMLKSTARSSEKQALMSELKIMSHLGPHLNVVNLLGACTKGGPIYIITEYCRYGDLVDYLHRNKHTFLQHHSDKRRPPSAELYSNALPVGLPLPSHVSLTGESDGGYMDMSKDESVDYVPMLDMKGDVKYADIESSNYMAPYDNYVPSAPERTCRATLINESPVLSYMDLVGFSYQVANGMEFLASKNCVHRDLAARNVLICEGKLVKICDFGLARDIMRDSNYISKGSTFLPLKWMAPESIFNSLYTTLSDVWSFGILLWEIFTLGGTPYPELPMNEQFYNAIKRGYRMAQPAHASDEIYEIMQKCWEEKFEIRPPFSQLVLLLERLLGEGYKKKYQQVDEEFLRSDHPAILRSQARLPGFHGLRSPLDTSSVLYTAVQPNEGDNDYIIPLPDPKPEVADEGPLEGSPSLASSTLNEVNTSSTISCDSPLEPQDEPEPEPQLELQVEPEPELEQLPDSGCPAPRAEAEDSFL
Chain of c-Abl kinase (P00521 115-385): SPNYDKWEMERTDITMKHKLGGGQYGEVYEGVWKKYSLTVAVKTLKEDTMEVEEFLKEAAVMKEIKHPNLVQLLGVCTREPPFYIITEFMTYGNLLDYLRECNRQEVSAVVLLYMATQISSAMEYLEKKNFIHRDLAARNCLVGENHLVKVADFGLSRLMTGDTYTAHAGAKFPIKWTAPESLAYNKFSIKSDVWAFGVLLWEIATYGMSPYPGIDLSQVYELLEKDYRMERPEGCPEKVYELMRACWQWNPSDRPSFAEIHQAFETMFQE

In the case of `COc1cc2c(cc1OC)-c1n[nH]c(Nc3ccccc3)c1C2` [Compound 2, (6,7-Dimethoxy-2,4-dihydro-indeno[1,2-c]pyrazol-3-yl)-phenyl-amine], the IC50 in test [1] came to 11 nM. In test [2], the inhibition at 10 µM was 91% and the IC50 worked out at 6 nM.
The like results for `COc1cccc2c1Cc1c-2n[nH]c1Nc1ccccc1` [Compound 8] were, in that order, 694 nM, 98% and 54 nM.
The like results for `COc1cc2c(cc1OC)-c1n[nH]c(Nc3ccc(F)cc3)c1C2` [Compound 13, (6,7-Dimethoxy-2,4-dihydro-indeno[1,2-c]pyrazol-3-yl)-(4-fluoro-phenyl)-amine] were, in that order, 173 nM, 91% and 6.5 nM.
Turning to `COc1cccc(Nc2[nH]nc3c2Cc2cc(OC)c(OC)cc2-3)c1` [Compound 29, (6,7-Dimethoxy-2,4-dihydro-indeno[1,2-c]pyrazol-3-yl)-(3-methoxy-phenyl)-amine], the IC50 in test [1] was determined as 5 nM. Moreover, the inhibition at 10 µM in test [2] was 99%.
For `COc1cc2c(cc1OC)-c1n[nH]c(Nc3cccc(C)c3)c1C2` [Compound 32, (6,7-Dimethoxy-2,4-dihydro-indeno[1,2-c]pyrazol-3-yl)-m-tolyl-amine], in that order: 2 nM and 79%.
Turning to `COc1cc2c(cc1OC)-c1n[nH]c(Nc3cccc(CO)c3)c1C2` [Compound 36, [3-(6,7-Dimethoxy-2,4-dihydro-indeno[1,2-c]pyrazol-3-ylamino)-phenyl]-methanol], the half-inhibitory concentration (IC50) in test [1] came to 64 nM; in test [2] it was 33 nM. In test [2], the inhibition at 10 µM was determined as 85%.
Take `COc1cc2c(cc1OC)-c1n[nH]c(Nc3cccc(O)c3)c1C2` [Compound 38, 3-(6,7-Dimethoxy-2,4-dihydro-indeno[1,2-c]pyrazol-3-ylamino)-phenol]: the IC50 in test [1] turned out to be 2 nM. Moreover, in test [2], the inhibition at 10 µM was 74% and the IC50 was found to be 31 nM.
As to `COc1cc(Nc2[nH]nc3c2Cc2cc(OC)c(OC)cc2-3)cc(OC)c1` [Compound 41, (6,7-Dimethoxy-2,4-dihydro-indeno[1,2-c]pyrazol-3-yl)-(3,5-dimethoxy-phenyl)-amine], the IC50 in test [1] came to 78 nM; in test [2] it was 33.6 nM. Further, the inhibition at 10 µM in test [2] amounted to 83%.
As for `COc1cc2c(cc1OC)-c1n[nH]c(Nc3cccc(Br)c3)c1C2` [Compound 44, (3-Bromo-phenyl)-(6,7-dimethoxy-2,4-dihydro-indeno[1,2-c]pyrazol-3-yl)-amine], the IC50 in test [1] came to 7 nM. In addition, in test [2], the inhibition at 10 µM was determined as 94% and the IC50 was 0.54 nM.
For `COc1cc2c(cc1OC)-c1n[nH]c(Nc3cccc(OCc4ccccc4)c3)c1C2` [Compound 54, (3-Benzyloxy-phenyl)-(6,7-dimethoxy-2,4-dihydro-indeno[1,2-c]pyrazol-3-yl)-amine], in that order: 971 nM, 76% and 34.8 nM.
The like results for `CN(C)CCCOc1cccc2c1Cc1c-2n[nH]c1Nc1cccc(F)c1` [Compound 90, [5-(3-Dimethylamino-propoxy)-2,4-dihydro-indeno[1,2-c]pyrazol-3-yl]-(3-fluoro-phenyl)-amine] were, in that order, 10300 nM, 97% and 8.7 nM.
In the case of `COc1cc2c(cc1OC)-c1n[nH]c(Nc3cccc(C(N)=O)c3)c1C2` [Compound 116, 3-(6,7-Dimethoxy-2,4-dihydro-indeno[1,2-c]pyrazol-3-ylamino)-benzamide], in test [1], the IC50 was 386 nM. Further, in test [2], the inhibition at 10 µM was found to be 96% and the IC50 turned out to be 5.3 nM.
The like results for `COc1cccc(Nc2[nH]nc3c2Cc2cc(N)ccc2-3)c1` [Compound 118, N3-(3-Methoxy-phenyl)-2,4-dihydro-indeno[1,2-c]pyrazole-3,6-diamine] were, in that order, 427 nM, 74% and 21.3 nM.
`Nc1ccc2c(c1)Cc1c-2n[nH]c1Nc1cccc(Cl)c1` [Compound 119, N3-(3-Chloro-phenyl)-2,4-dihydro-indeno[1,2-c]pyrazole-3,6-diamine]: in test [1], the IC50 came out at 524 nM. Moreover, in test [2], the inhibition at 10 µM was 90% and the IC50 came to 19.8 nM.
With `CN1CCN(c2ccc3c(c2)Cc2c-3n[nH]c2Nc2cccc(Cl)c2)CC1` [Compound 124, (3-Chloro-phenyl)-[6-(4-methyl-piperazin-1-yl)-2,4-dihydro-indeno[1,2-c]pyrazol-3-yl]-amine], in test [1], the IC50 was determined as 1850 nM. Further, in test [2], the inhibition at 10 µM stood at 94% and the IC50 turned out to be 16.3 nM.
Take `Clc1cccc(Nc2[nH]nc3c2Cc2cc4c(cc2-3)OCO4)c1` [Compound 128, (3-Chloro-phenyl)-(2,9-dihydro-5,7-dioxa-2,3-diaza-cyclopenta[a]-s-indacen-1-yl)-amine]: the half-maximal inhibitory concentration (IC50) in test [1] is 313 nM. Also, in test [2], the inhibition at 10 µM was 88% and the IC50 stood at 59.6 nM.
For `COc1cc2c(cc1OCCCN1CCOCC1)Cc1c-2n[nH]c1Nc1cccnc1` [Compound 129, [7-Methoxy-6-(3-morpholin-4-yl-propoxy)-2,4-dihydro-indeno[1,2-c]pyrazol-3-yl]-pyridin-3-yl-amine], the IC50 in test [1] was 10800 nM and 2360 nM; in test [2], 36.7 nM. The inhibition at 10 µM in test [2] is 53.5%.
With `COc1cc2c(cc1OCCCN1CCOCC1)Cc1c-2n[nH]c1Nc1cccc(Br)c1` [Compound 130, (3-Bromo-phenyl)-[7-methoxy-6-(3-morpholin-4-yl-propoxy)-2,4-dihydro-indeno[1,2-c]pyrazol-3-yl]-amine], the IC50 in test [1] came to 236 nM. In test [2], the inhibition at 10 µM was found to be 94.5% and the IC50 came to 2.15 nM.
As for `COc1cc2c(cc1OCCCN1CCOCC1)Cc1c-2n[nH]c1Nc1cccc(Cl)c1` [Compound 132, (3-Chloro-phenyl)-[7-methoxy-6-(3-morpholin-4-yl-propoxy)-2,4-dihydro-indeno[1,2-c]pyrazol-3-yl]-amine], in test [1], the IC50 is 665 nM. In test [2], the inhibition at 10 µM worked out at 79% and the IC50 was 5.37 nM.
For `COC(=O)c1cccc(Nc2[nH]nc3c2Cc2cc(OCCCN4CCOCC4)c(OC)cc2-3)c1` [Compound 133, 3-[7-Methoxy-6-(3-morpholin-4-yl-propoxy)-2,4-dihydro-indeno[1,2-c]pyrazol-3-ylamino]-benzoic acid methyl ester], in that order: 498 nM, 53% and 37.9 nM.
For `COc1cc2c(cc1OCCCN1CCOCC1)Cc1c-2n[nH]c1Nc1cccc(F)c1` [Compound 134, (3-Fluoro-phenyl)-[7-methoxy-6-(3-morpholin-4-yl-propoxy)-2,4-dihydro-indeno[1,2-c]pyrazol-3-yl]-amine], in that order: 1160 nM, 96% and 10.1 nM.
Consider `COCCCOc1ccc2c(c1)Cc1c-2n[nH]c1Nc1ccccc1` [Compound 140, [6-(3-Methoxy-propoxy)-2,4-dihydro-indeno[1,2-c]pyrazol-3-yl]-phenyl-amine], for which the IC50 in test [1] was 1410 nM. For the same compound, in test [2], the inhibition at 10 µM was 56.5% and the IC50 turned out to be 13.7 nM.

The IC50 is the concentration at which inhibition is half-maximal. For orientation: inhibition means the share of the control response that was lost under treatment.
